Patent publication US11401254B2, “Substituted thiophenecarboxamides and analogues as antibacterials agents” (Bayer Aktiengesellschaft, priority 2018, dated 2022)

Key:
[1] = Log P by HPLC on reversed phase columns (EEC directive 79/831 Annex V.A8); assay type: physicochemical; details: for chromatographic logP: reversed phase HPLC columns
Experimental: In the above tables, measurement of Log P values was performed according to EEC directive 79/831 Annex V.A8 by HPLC (High Performance Liquid Chromatography) on reversed phase columns with the following methods: • ^[a]
If more than one Log P value is available within the same method, all the values are given and separated by “+”.
Calibration was done with straight-chain alkan2-ones (with 3 to 16 carbon atoms) with known Log P values (measurement of Log P values using retention times with linear interpolation between successive alkanones). Lambda-max-values were determined using UV-spectra from 200 nm to 400 nm and the peak values of the chromatographic signals.

[2] = system: Xanthomonas campestris pv. campestris; test: Xanthomonas campestris pv. campestris in vitro cell test (bacteria growth in liquid culture); assay type: cell-based; details: 20 ppm of tested compound; 24 h of incubation
Experimental: Example A: Xanthomonas Campestris pv. Campestris In Vitro Cell Test
Culture medium: LB broth medium (Luria Broth Miller) Sigma
Inoculum: bacteria suspension
Compounds to be tested were solubilized in DMSO and the solution used to prepare the required range of concentrations. The final concentration of DMSO used in the assay was ≤1%.
Inoculum was prepared from a pre-culture of bacteria grown in liquid medium and diluted to the desired optical density (OD).
Compounds were evaluated for their ability to inhibit bacteria growth in liquid culture assay. The compounds were added in the desired concentrations to culture medium containing the bacteria suspension. After 24 h of incubation, the efficacy of compounds was determined by spectrometric measurement of bacteria growth. Inhibition was determined by comparing the absorbance values in wells containing the compounds with the absorbance in control wells without compounds.

[3] = method [a]: LC-UV, acidic range, 0.1% formic acid in water and acetonitrile as eluent
[4] = value given in preparation example, method variant not stated

| SMILES | LogP [1, 3] | also measured |
| --- | --- | --- |
| Cc1c(C(=O)N[C@H](C(=O)O)C(C)C)sc(Br)c1Br (racemic) [I.07, N-[(4,5-dibromo-3-methyl-2-thienyl)carbonyl]-valine] | – | chromatographic logP [1, 3]: 2.92; chromatographic logP [1, 4]: 2.92; direct activity (inhibition of bacteria growth) [2]: no direct activity |
| CCOC(=O)C1(NC(=O)c2sc(Br)c(Br)c2C)CC1 [I.01, ethyl 1-{[(4,5-dibromo-3-methyl-2-thienyl)carbonyl]amino}cyclopropanecarboxylate] | – | chromatographic logP [1, 3]: 3.19; chromatographic logP [1, 4]: 3.22; direct activity (inhibition of bacteria growth) [2]: no direct activity |
| CCOC(=O)CNC(=O)c1sc(Cl)c(Cl)c1C [I.03, ethyl N-[(4,5-dichloro-3-methyl-2-thienyl)carbonyl]glycinate] | – | chromatographic logP [1, 3]: 2.9; chromatographic logP [1, 4]: 2.95; direct activity (inhibition of bacteria growth) [2]: no direct activity |
| CCOC(=O)C(CC(C)C)NC(=O)c1sc(Br)c(Br)c1C (stereo not shown) [I.05] | 4.56^[a] | direct activity (inhibition of bacteria growth) [2]: no direct activity |
| Cc1c(C(=O)NC2(C(=O)O)CC2)sc(Br)c1Br [I.06] | – | direct activity (inhibition of bacteria growth) [2]: no direct activity |
| CCOC(=O)[C@@H](NC(=O)c1sc(Br)c(Br)c1C)C(C)C [I.08] | 4.32^[a] | direct activity (inhibition of bacteria growth) [2]: no direct activity |
| COC(=O)CNC(=O)c1sc(Br)c(Br)c1C [I.09] | – | direct activity (inhibition of bacteria growth) [2]: no direct activity |
| Cc1c(C(=O)NCC(=O)O)sc(Br)c1Br [I.10] | 2.05^[a] | direct activity (inhibition of bacteria growth) [2]: no direct activity |
| COC(=O)[C@@H](NC(=O)c1sc(Br)c(Br)c1C)C(C)C [I.11] | 3.87^[a] | direct activity (inhibition of bacteria growth) [2]: no direct activity |
| CC/C=C\CCOC(=O)C(NC(=O)c1sc(Br)c(Br)c1C)C(C)C (stereo not shown) [I.12] | – | direct activity (inhibition of bacteria growth) [2]: no direct activity |
| C#CCOC(=O)C(NC(=O)c1sc(Br)c(Br)c1C)C(C)C (stereo not shown) [I.13] | 4.06^[a] | direct activity (inhibition of bacteria growth) [2]: no direct activity |
| Cc1c(C(=O)NC(C(=O)OC2COC2)C(C)C)sc(Br)c1Br (stereo not shown) [I.16] | 3.58^[a] | – |
| CC[C@H](C)[C@H](NC(=O)c1sc(Br)c(Br)c1C)C(=O)OC [I.22] | – | direct activity (inhibition of bacteria growth) [2]: no direct activity |
| CCOC(=O)[C@@H](NC(=O)c1sc(Cl)c(Cl)c1C)C(C)C [I.25] | – | direct activity (inhibition of bacteria growth) [2]: no direct activity |
| CC[C@H](C)[C@H](NC(=O)c1sc(Cl)c(Cl)c1C)C(=O)OC [I.32] | – | direct activity (inhibition of bacteria growth) [2]: no direct activity |
| CCOC(=O)C(NC(=O)c1sc(Cl)c(Cl)c1C)C(C)C (stereo not shown) [I.40] | – | direct activity (inhibition of bacteria growth) [2]: no direct activity |
| CCOC(=O)C(NC(=O)c1sc(Cl)c(Cl)c1C)C(C)C (stereo not shown) [I.44] | – | direct activity (inhibition of bacteria growth) [2]: no direct activity |
| COC(=O)C1(NC(=O)c2sc(Cl)c(Cl)c2C)CC1 [I.50] | – | direct activity (inhibition of bacteria growth) [2]: no direct activity |
| Cc1c(C(=O)NC(C(=O)OCC2CC2)C(C)C)sc(Br)c1Br (stereo not shown) [I.52] | – | direct activity (inhibition of bacteria growth) [2]: no direct activity |
| CCOC(=O)C(NC(=O)c1sc(Br)c(Br)c1C)C(C)C (stereo not shown) [I.62] | 4.37^[a] | – |
| COC(=O)C(NC(=O)c1sc(Br)c(Br)c1C)C(C)C (stereo not shown) [I.63] | 3.91^[a] | – |
| CCOC(=O)C(Cc1ccccc1)NC(=O)c1sc(Br)c(Br)c1C (stereo not shown) [I.65] | 4.59^[a] | – |
| CCOC(=O)C(CC(C)C)NC(=O)c1sc(Br)c(Br)c1C (stereo not shown) [I.68] | 4.66^[a] | – |

| SMILES | LogP [1, 3] | also measured |
| --- | --- | --- |
| CCOC(=O)C(CC(C)C)NC(=O)c1sc(Br)c(Br)c1C (stereo not shown) [I.69] | 4.66^[a] | – |
| COC(=O)C(CCSC)NC(=O)c1sc(Br)c(Br)c1C (stereo not shown) [I.70] | 3.69^[a] | – |
| CCOC(=O)C(NC(=O)c1sc(Cl)c(Cl)c1C)c1ccccc1 (stereo not shown) [I.75] | 4.37^[a] | – |
| CCOC(=O)C(NC(=O)c1sc(Br)c(Br)c1C)c1ccccc1 (stereo not shown) [I.76] | 4.44^[a] | – |
| Cc1c(C(=O)NCC(=O)OC(C)C)sc(Br)c1Br [I.78] | 3.40^[a] | – |
| Cc1c(C(=O)NCC(=O)O)sc(Cl)c1Cl [I.80] | 2.05^[a] | – |
| Cc1c(C(=O)NC(C)C(=O)O)sc(Cl)c1Cl (stereo not shown) [I.81] | 2.28^[a] | – |
| Cc1c(C(=O)NC(C(=O)O)C(C)C)sc(Cl)c1Cl (stereo not shown) [I.82] | 2.96^[a] | – |
| CC[C@H](C)[C@H](NC(=O)c1sc(Cl)c(Cl)c1C)C(=O)O [I.83] | 3.31^[a] | – |
| Cc1c(C(=O)NC(CC(C)C)C(=O)O)sc(Cl)c1Cl (stereo not shown) [I.84] | 3.31^[a] | – |
| CSCCC(NC(=O)c1sc(Cl)c(Cl)c1C)C(=O)O (stereo not shown) [I.85] | 2.80^[a] | – |
| Cc1c(C(=O)NC(Cc2ccccc2)C(=O)O)sc(Cl)c1Cl (stereo not shown) [I.86] | 3.31^[a] | – |
| CSCCC(NC(=O)c1sc(Br)c(Br)c1C)C(=O)O (stereo not shown) [I.87] | 2.89^[a] | – |
| Cc1c(C(=O)NC(Cc2ccccc2)C(=O)O)sc(Br)c1Br (stereo not shown) [I.88] | 3.30^[a] | – |
| CC[C@H](C)[C@H](NC(=O)c1sc(Br)c(Br)c1C)C(=O)O [I.89] | 3.37^[a] | – |
| COC(=O)C(NC(=O)c1sc(Cl)c(Cl)c1C)C(C)C (stereo not shown) [I.91] | 4.34^[a] | – |
| CCOC(=O)C1(NC(=O)c2scc(Br)c2C)CC1 [IXa.01, ethyl 1-{[(4-bromo-3-methyl-2-thienyl)carbonyl]amino}cyclopropanecarboxylate] | – | chromatographic logP [1, 3]: 2.57 |
| CCOC(=O)CNC(=O)c1sc(Br)cc1C [IXa.02] | 2.39^[a] | – |
| CCOC(=O)C(NC(=O)c1sc(Br)cc1C)C(C)C (stereo not shown) [IXa.03] | 3.65^[a] | – |
| CCOC(=O)C(Cc1ccccc1)NC(=O)c1sc(Br)cc1C (stereo not shown) [IXa.04] | 3.90^[a] | – |
| CCOC(=O)C1(NC(=O)c2scc(Br)c2C)CC1 [IXb.01] | 2.49^[a] | – |
| COC(=O)c1sc(Cl)c(Cl)c1Br [VIIIa.02, methyl 3-bromo-4,5-dichlorothiophene-2-carboxylate] | – | chromatographic logP [1, 3]: 4.11; chromatographic logP [1, 4]: 3.99 |
| O=C(O)c1sc(Cl)c(Cl)c1Br [VIIIa.03, 3-bromo-4,5-dichlorothiophene-2-carboxylic acid] | – | chromatographic logP [1, 3]: 2.52; chromatographic logP [1, 4]: 2.51 |

| SMILES | LogP [1, 3] | also measured |
| --- | --- | --- |
| CCOC(=O)CNC(=O)c1sc(Cl)c(Cl)c1Br [VIa.01, ethyl N-[(3-bromo-4,5-dichloro-2-thienyl)carbonyl]glycinate] | – | chromatographic logP [1, 3]: 3.33; chromatographic logP [1, 4]: 3.33 |
| COC(=O)CNC(=O)c1sc(Cl)c(Cl)c1I [VIa.02] | 2.90^[a] | – |
| COC(=O)CNC(=O)c1sc(Br)c(Br)c1I [VIa.03] | 2.96^[a] | – |
| CCOC(=O)C1(NC(=O)c2sc(Cl)c(Cl)c2I)CC1 [VIa.05] | 3.39^[a] | – |
| CCOC(=O)CNC(=O)c1sc(Br)c(Br)c1I [VIa.10] | 3.35^[a] | – |
| CCOC(=O)CNC(=O)c1sc(Cl)c(Cl)c1I [VIa.12] | 3.31^[a] | – |
| O=C(O)CNC(=O)c1sc(Cl)c(Cl)c1I [VIa.13] | 2.21^[a] | – |
| CCOC(=O)C(Cc1ccccc1)NC(=O)c1sc(Br)c(Br)c1I (stereo not shown) [VIa.14] | 4.93^[a] | – |
| CCOC(=O)C(CC(C)C)NC(=O)c1sc(Br)c(Br)c1I (stereo not shown) [VIa.15] | 5.01^[a] | – |
| CCOC(=O)C(CCSC)NC(=O)c1sc(Br)c(Br)c1I (stereo not shown) [VIa.16] | 4.37^[a] | – |
| CCOC(=O)C(NC(=O)c1sc(Cl)c(Cl)c1Br)C(C)C (stereo not shown) [VIa.17] | 4.88^[a] | – |
| CCOC(=O)C(CC(C)C)NC(=O)c1sc(Cl)c(Cl)c1Br (stereo not shown) [VIa.18] | 5.17^[a] | – |
| CCOC(=O)C(CCSC)NC(=O)c1sc(Cl)c(Cl)c1Br (stereo not shown) [VIa.19] | 4.46^[a] | – |
| CCOC(=O)C(Cc1ccccc1)NC(=O)c1sc(Cl)c(Cl)c1Br (stereo not shown) [VIa.20] | 5.01^[a] | – |
| CCOC(=O)C(NC(=O)c1sc(Cl)c(Cl)c1I)C(C)C (stereo not shown) [VIa.21] | 4.85^[a] | – |
| CCOC(=O)C(CC(C)C)NC(=O)c1sc(Cl)c(Cl)c1I (stereo not shown) [VIa.22] | 5.08^[a] | – |
| CCOC(=O)C(CCSC)NC(=O)c1sc(Cl)c(Cl)c1I (stereo not shown) [VIa.23] | 4.40^[a] | – |
| CCOC(=O)C(Cc1ccccc1)NC(=O)c1sc(Cl)c(Cl)c1I (stereo not shown) [VIa.24] | 5.00^[a] | – |
| CCOC(=O)c1sc(NC(=O)OC(C)(C)C)c(Br)c1C [XIIIa.01] | 4.62^[a] | – |
| Cc1c(C(=O)O)sc(NC(=O)OC(C)(C)C)c1Br [XIIIa.02, 4-bromo-5-[(tert-butoxycarbonyl)amino]-3-methylthiophene-2-carboxylic acid] | – | chromatographic logP [1, 3]: 2.86 |
| CCOC(=O)C1(NC(=O)c2sc(NC(=O)OC(C)(C)C)c(Br)c2C)CC1 [XIa.01, ethyl 1-[({4-bromo-5-[(tert-butoxycarbonyl)amino]-3-methyl-2-thienyl}carbonyl)amino]cyclopropanecarboxylate] | – | chromatographic logP ([1]; method [b]: LC-UV, neutral range, 0.001 molar ammonium acetate solution in water and acetonitrile as eluent): 3.44; chromatographic logP [1, 4]: 3.28 |
| CCOC(=O)C1(NC(=O)c2sc(N)c(Br)c2C)CC1 [Xa.01, ethyl 1-{[(5-amino-4-bromo-3-methyl-2-thienyl)carbonyl]amino}cyclopropanecarboxylate] | – | chromatographic logP [1, 3]: 1.97; chromatographic logP [1, 4]: 1.92 |
| COC(=O)c1sc(Cl)c(Cl)c1N [methyl 3-amino-4,5-dichlorothiophene-2-carboxylate] | – | chromatographic logP [1, 4]: 3.11 |
